Measured values taken from patent publication EP0908457B1, “3-(1,2-benzisothiazol- and isoxazol-5-Y1)-2,4(1H,3H)-pyrimidinedione or thione and 3-(1,2-benzisothiazol- and isoxazol-5-y1)-4(3H)-pyrimidinone or thione herbicidal agents” (BASF AKTIENGESELLSCHAFT, priority 1997, dated 1999).

Legend:
[1] = tested on: Monochoria vaginalis, Presl.; experiment: Preemergence weed control under flooded paddy conditions, MOOVA (Monochoria); assay type: in vivo; settings: preemergence, flooded paddy, rated three to four weeks after treatment
[2] = tested on: Oryza sativa, (L.) Tebonnet; experiment: Rice tolerance to post-transplant applications under flooded paddy conditions (Example 187), ORYSAT (Rice, Tebonnet); settings: rated three to four weeks after treatment
Sagittaria pygmaea, L. = experiment: Preemergence weed control under flooded paddy conditions, SAGPY (Arrowhead (Pygmaea)); assay type: in vivo; settings: preemergence, flooded paddy, rated three to four weeks after treatment
Cyperus iria = experiment: Preemergence weed control under flooded paddy conditions, CYPIR (Rice Flatsedge); assay type: in vivo; settings: preemergence, flooded paddy, rated three to four weeks after treatment
[3] = tested on: Cyperus serotinus, Rottb.; experiment: Preemergence weed control under flooded paddy conditions, CYPSE (Flatsedge); assay type: in vivo; settings: preemergence, rated three to four weeks after treatment
[4] = tested on: Echinochloa oryzoides (Ard.) Fritsch.; experiment: Preemergence weed control under flooded paddy conditions, ECHORC (Watergrass (Calif.)); assay type: in vivo; settings: preemergence, flooded paddy, rated three to four weeks after treatment
Also: meaning of each grade not given here.

Cc1ccc(OC(C)(C)C(=O)NS(C)(=O)=O)c(-c2nsc3ccc(-n4c(=O)cc(C(F)(F)F)n(C)c4=O)cc23)c1 [Example 576, Propionamide, 2-{{2-{5-[3,6-dihydro-3-methyl-2,6-dioxo-4-(trifluoromethyl)-1(2H)-pyrimidinyl]-1,2-benzisothiazol-3-yl}-p-tolyl}oxy}-2-methyl-N-(methylsulfonyl)-]
herbicidal effect rating, MOOVA ([1]; Rate 0.0320 kg/ha): 7.0
herbicidal effect rating, MOOVA ([1]; Rate 0.0620 kg/ha): 9.0
herbicidal effect rating, MOOVA ([1]; Rate 0.1250 kg/ha): 9.0
herbicidal effect rating, MOOVA ([1]; Rate 0.2500 kg/ha): 9.0
herbicidal effect rating ORYSAT ([2]; Rate 0.0320 kg/ha): 4.0
herbicidal effect rating ORYSAT ([2]; Rate 0.0620 kg/ha): 7.0
herbicidal effect rating ORYSAT ([2]; Rate 0.1250 kg/ha): 7.0
herbicidal effect rating ORYSAT ([2]; Rate 0.2500 kg/ha): 9.0
herbicidal effect rating, SAGPY (Sagittaria pygmaea, L.; Rate 0.0320 kg/ha): 0.0
herbicidal effect rating, SAGPY (Sagittaria pygmaea, L.; Rate 0.0620 kg/ha): 0.0
herbicidal effect rating, SAGPY (Sagittaria pygmaea, L.; Rate 0.1250 kg/ha): 3.0
herbicidal effect rating, SAGPY (Sagittaria pygmaea, L.; Rate 0.2500 kg/ha): 4.0
herbicidal effect rating, CYPIR (Cyperus iria; Rate 0.0320 kg/ha): 0.0
herbicidal effect rating, CYPIR (Cyperus iria; Rate 0.0620 kg/ha): 3.0
herbicidal effect rating, CYPIR (Cyperus iria; Rate 0.1250 kg/ha): 3.0
herbicidal effect rating, CYPIR (Cyperus iria; Rate 0.2500 kg/ha): 5.0
herbicidal effect rating, CYPSE ([3]; Rate 0.0320 kg/ha): 0.0
herbicidal effect rating, CYPSE ([3]; Rate 0.0620 kg/ha): 0.0
herbicidal effect rating, CYPSE ([3]; Rate 0.1250 kg/ha): 0.0
herbicidal effect rating, CYPSE ([3]; Rate 0.2500 kg/ha): 4.0
herbicidal effect rating, ECHORC ([4]; Rate 0.0320 kg/ha): 6.0
herbicidal effect rating, ECHORC ([4]; Rate 0.0620 kg/ha): 7.0
herbicidal effect rating, ECHORC ([4]; Rate 0.1250 kg/ha): 7.0
herbicidal effect rating, ECHORC ([4]; Rate 0.2500 kg/ha): 9.0

Cn1c(C(F)(F)F)cc(=O)n(-c2ccc3snc(C(=O)NCC(=O)O)c3c2)c1=O [Example 579, Glycine, N-{{5-[3,6-dihydro-3-methyl-2,6-dioxo-4-(trifluoromethyl)-1(2H)-pyrimidinyl]-1,2-benzisothiazol-3-yl}carbonyl}-]
herbicidal effect rating, MOOVA ([1]; Rate 0.0320 kg/ha): 6.0
herbicidal effect rating, MOOVA ([1]; Rate 0.0620 kg/ha): 7.0
herbicidal effect rating, MOOVA ([1]; Rate 0.1250 kg/ha): 7.0
herbicidal effect rating, MOOVA ([1]; Rate 0.2500 kg/ha): 9.0
herbicidal effect rating ORYSAT ([2]; Rate 0.0320 kg/ha): 0.0
herbicidal effect rating ORYSAT ([2]; Rate 0.0620 kg/ha): 2.0
herbicidal effect rating ORYSAT ([2]; Rate 0.1250 kg/ha): 3.0
herbicidal effect rating ORYSAT ([2]; Rate 0.2500 kg/ha): 3.0
herbicidal effect rating, SAGPY (Sagittaria pygmaea, L.; Rate 0.0320 kg/ha): 0.0
herbicidal effect rating, SAGPY (Sagittaria pygmaea, L.; Rate 0.0620 kg/ha): 0.0
herbicidal effect rating, SAGPY (Sagittaria pygmaea, L.; Rate 0.1250 kg/ha): 0.0
herbicidal effect rating, SAGPY (Sagittaria pygmaea, L.; Rate 0.2500 kg/ha): 2.0
herbicidal effect rating, CYPIR (Cyperus iria; Rate 0.0320 kg/ha): 0.0
herbicidal effect rating, CYPIR (Cyperus iria; Rate 0.0620 kg/ha): 0.0
herbicidal effect rating, CYPIR (Cyperus iria; Rate 0.1250 kg/ha): 4.0
herbicidal effect rating, CYPIR (Cyperus iria; Rate 0.2500 kg/ha): 6.0
herbicidal effect rating, CYPSE ([3]; Rate 0.0320 kg/ha): 0.0
herbicidal effect rating, CYPSE ([3]; Rate 0.0620 kg/ha): 0.0
herbicidal effect rating, CYPSE ([3]; Rate 0.1250 kg/ha): 0.0
herbicidal effect rating, CYPSE ([3]; Rate 0.2500 kg/ha): 0.0
herbicidal effect rating, ECHORC ([4]; Rate 0.0320 kg/ha): 2.0
herbicidal effect rating, ECHORC ([4]; Rate 0.0620 kg/ha): 4.0
herbicidal effect rating, ECHORC ([4]; Rate 0.1250 kg/ha): 4.0
herbicidal effect rating, ECHORC ([4]; Rate 0.2500 kg/ha): 5.0
